EP1656933A1, “A medicinal composition comprising L-alanine for non-alcoholic fatty liver disease and/or non-alcoholic steatohepatitis and use therof” (Ajinomoto Co., Inc., priority 2004, dated 2006)

Tests used:
[1] = test system: HFD-induced fatty liver rat model; assay: High-fat diet (HFD)-induced fatty liver rat model, hepatic triglyceride contents; format: in vivo, Male GK rats; conditions: diet mixed with 4% L-alanine for 6 weeks; one rat of 6, in the level of SD group
Procedure: It has been supposed that the increase of the amount of fat intake in the last few decades is one of the causes of the recent increase of the number of patients with NASH. Therefore, the effect of L-alanine on the hepatic triglyceride contents in the high-fat diet (hereinafter HFD)-induced fatty liver rat model. Male GK rats (9 weeks of age, 6 rats per group) received HFD (containing 30% beef tallow) for 6 weeks. Triglyceride contents in the liver tissue was increased to 29.1 to 49.3 mg per gram of liver tissue, compared with those (14.1 to 24.2 mg) in the group fed with standard diet (containing 5% soy-been oil; hereinafter SD). Pioglitazone is a drug, which acts as an insulin-sensitizer for the patients with diabetes. Recent clinical pilot studies raise the possibility of clinical utility of pioglitazone for NASH. […] On the other hand, in the group of 6 rats received […] mixed with 4% L-alanine for 6 weeks, one rat is reduced in the liver triglyceride contents (19.6 mg) in the level of SD group. In addition, weight gain was reported as the main side effect in a pilot clinical study of piogritazone for NASH.

[2] = test system: choline-deficient diet (hereinafter CDD) rat model; assay: Choline-deficient diet (CDD) rat model showing NASH-like pathological change in the liver; format: in vivo, Male Wistar rats
Text: Male Wistar rats (7 weeks of age, 5 rats per group) received CDD (Dyets Co.) for 4 weeks. […] On the other hand, in the group of 5 rats received CDD mixed with 4% L-alanine for 4 weeks, one rat is normalized in liver weight (10.6g).

[3] = parameters: species or system Male GK rats; conditions: rat, in vivo
Text: It has been supposed that the increase of the amount of fat intake in the last few decades is one of the causes of the recent increase of the number of patients with NASH. Therefore, the effect of L-alanine on the hepatic triglyceride contents in the high-fat diet (hereinafter HFD)-induced fatty liver rat model. Male GK rats (9 weeks of age, 6 rats per group) received HFD (containing 30% beef tallow) for 6 weeks.

| SMILES | liver triglyceride contents [1] [mg] | liver weight ([2]; CDD mixed with 4% L-alanine for 4 weeks, one rat of 5 (normalized), CDD alone 14.5 to 20.0 g) [g] | macrovesicular hepatic steatosis / histological fat accumulation in the liver ([2]; CDD mixed with drug for 4 weeks, histological examination, UDCA all of 5 rats, L-alanine the one rat of 5 with normalized liver weight) | Body Weight (g) Post (at 6 weeks) [3] [g] | Body Weight (g) Pre [3] [g] |
| --- | --- | --- | --- | --- | --- |
| C[C@H](N)C(=O)O [L-alanine] | 19.6 | 10.6 | not recognized | 331.8 ± 20.5 | 219.8 ± 13.0 |
| CCc1ccc(CCOc2ccc(CC3SC(=O)NC3=O)cc2)nc1 (stereo not drawn) [pioglitazone, reference compound] |  |  |  |  | 222.1 ± 9.9 |
